“And” between values parts separate entries of the source, which are not always exact repeats. Equal entries are not always repeated.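 Five compound concentrations were applied to cells in 96-well plates for 48 hours; endpoints were derived by simple linear interpolation of the resulting dose-response curve. The concentration for 50% growth inhibition is given as GI50.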 The source made the active and inactive calls. Cut-off read from the data, not from the text of the source: active = GI50 up to about 1.1 µM and inactive = higher.
Experiments:
Assay in all cases: NCI anticancer screen, dose series, 48 h
SNB-19 = tested on: SNB-19
M14 = tested on: M14
HT-29 = tested on: HT-29
MCF7 = tested on: MCF7
TK-10 = tested on: TK-10
T47D = tested on: T47D
DU-145 = tested on: DU-145
OVCAR-5 = tested on: OVCAR-5
OVCAR-4 = tested on: OVCAR-4
MDA-N = tested on: MDA-N
OVCAR-8 = tested on: OVCAR-8
BT-549 = tested on: BT-549
NCI-H522 = tested on: NCI-H522
RPMI-8226 = tested on: RPMI-8226
HCT-15 = tested on: HCT-15
SK-OV-3 = tested on: SK-OV-3
NCI/ADR-RES = tested on: NCI/ADR-RES
SK-MEL-28 = tested on: SK-MEL-28
HOP-92 = tested on: HOP-92
CCRF-CEM = tested on: CCRF-CEM

Row | Compound | GI50 (SNB-19) | GI50 (M14) | GI50 (HT-29) | GI50 (MCF7) | GI50 (TK-10) | GI50 (T47D) | GI50 (DU-145) | GI50 (OVCAR-5) | GI50 (OVCAR-4) | GI50 (MDA-N) | GI50 (OVCAR-8) | GI50 (BT-549) | GI50 (NCI-H522) | GI50 (RPMI-8226) | GI50 (HCT-15) | GI50 (SK-OV-3) | GI50 (NCI/ADR-RES) | GI50 (SK-MEL-28) | GI50 (HOP-92) | GI50 (CCRF-CEM)
1 | CC1CC[C@@]2(OC1)OC1C[C@H]3[C@@H]4CC=C5C[C@@H](OC6OC(CO)C(OC7OC(CO)C(O)C(O)C7O)C(O)C6OC6OC(C)C(O)C(O)C6O)CC[C@]5(C)[C@H]4CC[C@]3(C)C1[C@@H]2C (stereo partly drawn) | 1.2 µM (inactive) | 0.479 µM (active) | 0.475 µM (active) | 0.587 µM (active) | 1.04 µM (active) | 0.513 µM (active) | 0.476 µM (active) | 1.42 µM (inactive) | 1.53 µM (inactive) | 0.863 µM (active) | 0.659 µM (active) | 0.463 µM (active) | 0.998 µM (active) | 0.526 µM (active) | 3.52 µM | 3.3 µM (inactive) | 2.07 µM (inactive) | 0.53 µM (active) | 0.729 µM (active) | 0.617 µM (active)
2 | Cc1n[nH]c(=O)n1Nc1ccccc1 | > 100 µM (inactive) | > 100 µM (inactive) | > 100 µM (inactive) | > 100 µM (inactive) |  | > 100 µM (inactive) | > 100 µM (inactive) | > 100 µM (inactive) | > 100 µM (inactive) | > 100 µM (inactive) | > 100 µM (inactive) | > 100 µM (inactive) | > 100 µM (inactive) | > 100 µM (inactive) | > 100 µM | > 100 µM (inactive) | > 100 µM (inactive) | > 100 µM (inactive) | > 100 µM (inactive) | > 100 µM (inactive)
3 | O=[N+]([O-])c1ccc2[nH]ncc2c1Cl | 36.8 µM (inactive) |  | 17.9 µM (inactive) | 41.7 µM (inactive) | 83.6 µM (inactive) | 17.5 µM (inactive) | 16.6 µM (inactive) | 23.6 µM (inactive) | 26.8 µM (inactive) | 16.1 µM (inactive) | 27.5 µM (inactive) | 38.5 µM (inactive) | 3.74 µM (inactive) | 20.1 µM (inactive) | 23.3 µM | 53.5 µM (inactive) | 26.5 µM (inactive) | 33.5 µM (inactive) | 63 µM (inactive) | 46 µM (inactive)
4 | SC1CCCN(Cc2ccccc2)C1 (stereo not drawn) | > 100 µM (inactive) | 20 µM (inactive) | 21 µM (inactive) | 20.8 µM (inactive) | 69.7 µM (inactive) | 27.5 µM (inactive) | > 100 µM (inactive) | > 100 µM (inactive) | 56.9 µM (inactive) | 59 µM (inactive) | 46.1 µM (inactive) | > 100 µM (inactive) | 35.7 µM (inactive) | 21.3 µM (inactive) | 38.2 µM | > 100 µM (inactive) | > 100 µM (inactive) | 41.9 µM (inactive) | 60 µM (inactive) | 
5 | C[C@H]1C2Cc3cc(N)ccc3[C@@]1(C)CCN2CCc1ccccc1 | > 100 µM (inactive) | 20.9 µM (inactive) | 6.49 µM (inactive) | 25.2 µM (inactive) | 78 µM (inactive) | 31.6 µM (inactive) | > 100 µM (inactive) | 74.6 µM (inactive) | 48.2 µM (inactive) | 66.2 µM (inactive) | 62.5 µM (inactive) | > 100 µM (inactive) | 13.2 µM (inactive) | 33.6 µM (inactive) | 25.2 µM | 24 µM (inactive) | 42.3 µM (inactive) | > 100 µM (inactive) | 21.4 µM (inactive) | 33.2 µM (inactive)
6 | Nc1nc(N)c(CCCCc2ccc([N+](=O)[O-])cc2)c(N)n1 | > 100 µM (inactive) | 31 µM (inactive) | 7.67 µM (inactive) | > 100 µM (inactive) | > 100 µM (inactive) | > 100 µM (inactive) | 76 µM (inactive) | 78.7 µM (inactive) | > 100 µM (inactive) | > 100 µM (inactive) | 22.3 µM (inactive) | > 100 µM (inactive) | > 83.6 µM (inactive) | > 25.9 µM (inactive) | 6.65 µM | > 100 µM (inactive) | > 100 µM (inactive) |  | 99.5 µM (inactive) | > 20.3 µM (inactive)
7 | Cc1ccc(NCc2nnc3c(-c4ccccc4)nc4ccccc4n23)cc1 | 38 µM (inactive) | 37.6 µM (inactive) | 21.5 µM (inactive) | 23.6 µM (inactive) | 43.9 µM (inactive) | 3.36 µM (inactive) | 25.2 µM (inactive) | 39.9 µM (inactive) | 28.2 µM (inactive) | 26.2 µM (inactive) | 24 µM (inactive) | 37.4 µM (inactive) | 16 µM (inactive) |  | 38.5 µM | 40.6 µM (inactive) | 50.9 µM (inactive) | 64 µM (inactive) | 16 µM (inactive) | 15.1 µM (inactive)
8 | Cc1ccnc2c1C(=O)C1=C(OC(C)(C)CC1O)C2=O (stereo not drawn) | 7.38 µM (inactive) | 2.62 µM (inactive) | 3.08 µM (inactive) | 2.56 µM (inactive) | 12 µM (inactive) | 4.89 µM (inactive) | 6.4 µM (inactive) | 8.26 µM (inactive) | 3.01 µM (inactive) | 1.45 µM (inactive) | 2.83 µM (inactive) | 3.36 µM (inactive) | 2.9 µM (inactive) | 4.06 µM (inactive) | 2.38 µM | 13.7 µM (inactive) | 2.78 µM (inactive) | 2.05 µM (inactive) | 10.1 µM (inactive) | 2.97 µM (inactive)
9 | COc1ccc(OC)c(/C=C/[N+](=O)[O-])c1 | 3.44 µM (inactive) and 4.23 µM (inactive) | 1.98 µM (inactive) and 3.36 µM (inactive) | 3.47 µM (inactive) and 2.49 µM (inactive) | 2.32 µM (inactive) |  | 3.01 µM (inactive) | 3.33 µM (inactive) and 3.03 µM (inactive) |  | 4.31 µM (inactive) and 2.8 µM (inactive) | 3.16 µM (inactive) | 5.6 µM (inactive) and 4.23 µM (inactive) | 3.67 µM (inactive) | 1.63 µM (inactive) and 1.16 µM (inactive) | 1.39 µM (inactive) and 845 nM (active) | 3.37 µM and 2.75 µM | 5.53 µM (inactive) and 4.7 µM (inactive) | 2.96 µM (inactive) | 2.01 µM (inactive) and 3.48 µM (inactive) | 4.35 µM (inactive) and 3.05 µM (inactive) | 1.01 µM (active) and 1.58 µM (inactive)
10 | Cn1c(C(O)C2(c3cccnc3)SCCCS2)cc2ccccc21 (stereo not drawn) | > 100 µM (inactive) | 89.7 µM (inactive) | > 100 µM (inactive) | 59.2 µM (inactive) | > 100 µM (inactive) | 51.1 µM (inactive) | > 100 µM (inactive) | > 100 µM (inactive) | 67.8 µM (inactive) | > 100 µM (inactive) | > 100 µM (inactive) | 44.5 µM (inactive) |  | 38.5 µM (inactive) | > 100 µM | > 100 µM (inactive) | > 100 µM (inactive) | > 100 µM (inactive) | > 100 µM (inactive) | 84.7 µM (inactive)
11 | Brc1cccc(Nc2ncnc3sc4c(c23)CCC2(C4)OCCO2)c1 | 34.3 µM (inactive) | 31.1 µM (inactive) | 45.4 µM (inactive) | 28.3 µM (inactive) | 7.73 µM (inactive) | 5.61 µM (inactive) | 7.28 µM (inactive) | > 100 µM (inactive) | 20.1 µM (inactive) | 33.6 µM (inactive) | 24.5 µM (inactive) | 27.5 µM (inactive) | 12.3 µM (inactive) |  | 25.4 µM | 32.1 µM (inactive) | 22.3 µM (inactive) |  | 10.7 µM (inactive) | 
12 | COc1ccc(CNC2=N/C(=C\c3ccccc3Cl)C(=O)N2C)cc1 | 38.6 µM (inactive) | 17.9 µM (inactive) | 22.9 µM (inactive) | 25.5 µM (inactive) | 37.7 µM (inactive) | 14.2 µM (inactive) | 27.7 µM (inactive) | 27.9 µM (inactive) | 23.9 µM (inactive) | 18.8 µM (inactive) | 27.1 µM (inactive) | 36.8 µM (inactive) | 20.5 µM (inactive) |  | 28.4 µM | 51.2 µM (inactive) | 28 µM (inactive) | 33 µM (inactive) | 23.1 µM (inactive) | 
13 | Cc1cc(S(=O)(=O)NC2=Nc3cccc4cccc(c34)N2)c(S)cc1Cl | 79.1 µM (inactive) | 65.2 µM (inactive) |  | > 100 µM (inactive) |  | > 100 µM (inactive) | > 100 µM (inactive) | > 100 µM (inactive) | 85.9 µM (inactive) | 0.316 µM (active) | > 100 µM (inactive) | > 100 µM (inactive) | > 100 µM (inactive) | > 100 µM (inactive) | > 100 µM |  | > 100 µM (inactive) | > 100 µM (inactive) | > 100 µM (inactive) | 44.5 µM (inactive)
14 | COc1c(O)cc(/C=C/c2cc(O)cc3c2[C@@]2(C(=O)O3)c3c(O)cc(O)cc3OC2c2cccc(O)c2)cc1O (stereo partly drawn) | 39.3 µM (inactive) | 95.3 µM (inactive) | 30.5 µM (inactive) | 48.6 µM (inactive) | 95.9 µM (inactive) | 65.9 µM (inactive) | 72.1 µM (inactive) |  | 19.6 µM (inactive) | 39.5 µM (inactive) | 23.7 µM (inactive) | 23.7 µM (inactive) | 34.8 µM (inactive) | 14.7 µM (inactive) | 30.5 µM | 28.2 µM (inactive) | 26.4 µM (inactive) | 35.2 µM (inactive) | > 100 µM (inactive) | 30.5 µM (inactive)
15 | C=CC(C)(C)NC(C(=O)N1CCC[C@H]1c1nc(-c2nc(C(=O)OCC=C(C)C)c(C)o2)c(C)o1)C(C)C (stereo partly drawn) | > 48.6 µM (inactive) | > 62.2 µM (inactive) | > 52 µM (inactive) | > 53.8 µM (inactive) | > 57.8 µM (inactive) | 74.8 µM (inactive) | > 84.7 µM (inactive) | > 76 µM (inactive) | 33.3 µM (inactive) | 23.9 µM (inactive) | > 58.6 µM (inactive) | > 100 µM (inactive) | > 100 µM (inactive) | > 100 µM (inactive) | > 52.1 µM | > 83 µM (inactive) | > 55 µM (inactive) | > 66.1 µM (inactive) | 23.3 µM (inactive) | > 59.7 µM (inactive)

— ChEMBL document CHEMBL1201862, “PubChem BioAssay data set” (2004)
